Source: patent US20200015498A1, “ANIMAL FEED WITH BETA ADRENERGIC AGONIST AND ISOQUINOLINE ALKALOID” (priority 2017, published 2020)

Experiments:
Format in all cases: in vivo
pigs [1] = experiment: Second experiment: 4 groups of 50 pigs fed different food and additive combinations for 4 weeks until slaughter day
From the text: In the second experimental test, 4 groups of 50 pigs were fed with different food and additive combinations for 4 weeks until slaughter day as presented in the table below. The Isoquinoline alkaloids in the feed of groups 2 and 3 mainly consisted of sanguinarine.

pigs [2] = experiment: Third experiment: meat quality classes of 120 pigs per group fed for the last four weeks until slaughter day
Method: The following table illustrates meat quality indicators obtained for 120 pigs fed for the last four weeks until slaughter day added with a beta adrenergic agonist at recommended dosages of 7.5 mg/kg feed and having a protein enriched feed formulation comparing to 120 other pigs fed during the same time period with the same feed which in addition the beta adrenergic agonist is also added with isoquinoline alkaloids like sanguinarin.
(§1) In most countries of the world, the quality of the carcass (without innards and blood) is determined as of muscle area, fat mm at back, total analysis of fat content etc. for determining the price of the carcass per kg warm or cold carcass weight (depending on country). For this purpose, the animals are scanned in the slaughtering line by means of sensors or image-giving techniques, and the proportion of muscles and the thickness of the backbone are measured and converted into an equation which then calculates the proportion of lean meat in the entire carcass. In the EU, the carcasses can be assigned to different meat quality groups according to the following classification scheme: • S=Highest quality=>60.85% lean-meat • E=Premium Quality=58.75% lean-meat • U=High Quality=>55.9% lean-meat • R=Medium Quality=>53.9% lean-meat • O=Low Quality=>51.1% lean-meat • P=very low Quality=<51.1% lean-meat

pigs [3] = experiment: Fourth experiment: 1500 pigs in four groups fed AFC1-AFC4, distribution in meat quality classes
Method: as §1
As a rule, during the last 4-week before slaughter day when beta adrenergic agonists are typically administered, an animal feed is administered which not only has a higher protein content but also a higher proportion of muscle-binding amino acids (e.g., lysine). For example, a manufacturer of a beta adrenergic agonist prescribes that the content of the limiting amino acid lysine and threonine in the feed must be about 30% higher than under “standard” conditions when the beta adrenergic agonist is administered. It is, however, known that only 30% of the amino acids added to the feed are resorbed and metabolized, the rest being lost.
The test was performed with 1500 pigs divided into four groups 1-4, each group comprising 375 pigs. The pigs were held in 100 units of 15 animals per unit. Different groups of pigs were fed with feeds of different compositions. The following table illustrates meat quality indicators.
(§2) The following animal feed compositions were administered: • AFC1: Corn, maize, soybean meal, vitamine, enzyme and mineral mixture comprising: 17% protein 0.8% lysine • AFC2: Corn, maize, Corn, maize, soybean meal, vitamine, enzyme and mineral mixture comprising: 17% protein, 0.8% lysine and 1 mg isoquinoline alkaloid/kg feed (mainly sanguinarine) • AFC3: Corn, maize, soybean meal, vitamine, enzyme and mineral mixture comprising: 19% protein, 1% lysine and a beta adrenergic agonist (ractopamin as “Paylean®” in recommended dosage (®=reg. trademark of Eli Lilly and Co.) • AFC4: Corn, maize, soybean meal, vitamine, enzyme and mineral mixture comprising: 17% protein, 0.9% lysine, 1 mg isoquinoline alkaloid (mainly sanguinarine)/kg feed and a beta adrenergic agonist (ractopamin as “Paylean®” Paylean in recommended dosage)

pigs [4] = experiment: Sixth experiment: test four repeated with 1310 pigs of a further animal farm
Method: as §1, §2
(§3) Test four was repeated with 1310 pigs of a further animal farm divided into four groups 1-4, each group comprising 330 pigs. The pigs were held in 11 units of 30 animals. Different groups of pigs were fed with feeds of different compositions as described for the fourth experiment. The following table illustrates meat quality indicators.

pigs [5] = experiment: Fifth experiment: test four repeated with 1700 pigs of a different farm
Method: as §1, §2
as §3, with “1700” for “1310”, “different” for “further animal”, “425” for “330”, “in” for “in 11”, “25” for “30”

[6] = class E >58.75 % lean-meat, 120 pigs per group
[7] = class O >51.10 % lean-meat, 120 pigs per group
[8] = class P <51.10 % lean-meat, 120 pigs per group
[9] = class R >53.90 % lean-meat, 120 pigs per group
[10] = class U >55.90 % lean-meat, 120 pigs per group
[11] = class O >51.1% lean-meat, feeds AFC2, AFC3, AFC4, control 4
[12] = class P <51.1% lean-meat, feeds AFC2, AFC3, AFC4, control 0

SMILES: CC(CCc1ccc(O)cc1)NCC(O)c1ccc(O)cc1 (stereo not drawn) [ractopamine]
- Feed conversion ratio (pigs [1]; 4 weeks until slaughter, isoquinoline alkaloids 1 mg/kg feed and/or ractopamin 7.5 mg/kg feed, control 2.78): 2.62
- Daily weight gain (pigs [1]; 4 weeks until slaughter, isoquinoline alkaloids 1 mg/kg feed and/or ractopamin 7.5 mg/kg feed, control 753): 852 g
- live mass at slaughter day (pigs [1]; after 4 weeks, isoquinoline alkaloids 1 mg/kg feed and/or ractopamin 7.5 mg/kg feed, soybean 15% (group 2), 17% (group 3), 20% (group 4), control 118): 125.5 kg
- Fraction lean meat (pigs [1]; at slaughter, isoquinoline alkaloids 1 mg/kg feed and/or ractopamin 7.5 mg/kg feed, control 54.95): 58.5%
- performance (daily weight gain, feed utilization, lean meat content) compared with the control group, in words (pigs [1]; second experiment, groups 2-4 versus group 1): significantly improves performance and increases the lean meat content and the feed utilization
- % of all pigs in meat quality class E (pigs [2]; [6]): 41%
- Number of pigs in meat quality class E (pigs [2]; [6]): 49
- % of all pigs in meat quality class O (pigs [2]; [7]): 1%
- Number of pigs in meat quality class O (pigs [2]; [7]): 1
- % of all pigs in meat quality class P (pigs [2]; [8]): 0%
- Number of pigs in meat quality class P (pigs [2]; [8]): 0
- % of all pigs in meat quality class R (pigs [2]; [9]): 6%
- Number of pigs in meat quality class R (pigs [2]; [9]): 7
- % of all pigs in meat quality class S (pigs [2]; class S >60.85 % lean-meat, 120 pigs per group): 33%
- Number of pigs in meat quality class S (pigs [2]; class S >60.85 % lean-meat, 120 pigs per group, ractopamin 7.5 mg/kg feed, protein enriched feed): 40
- % of all pigs in meat quality class U (pigs [2]; [10]): 19%
- Number of pigs in meat quality class U (pigs [2]; [10]): 23
- numbers of S and E carcass classes as highest value carcasses (pigs [2]; third experiment, sum of classes S and E): 74%
- Distribution of slaughtered pigs in meat quality class E (pigs [3]; class E >58.75% lean-meat, feeds AFC2, AFC3, AFC4, control 35): 39%
- Distribution of slaughtered pigs in meat quality class O (pigs [3]; [11]): 1%
- Distribution of slaughtered pigs in meat quality class P (pigs [3]; class P <51.1% lean-meat, feeds AFC2, AFC3, AFC4, control 1): 0%
- Distribution of slaughtered pigs in meat quality class R (pigs [3]; class R >53.9% lean-meat, feeds AFC2, AFC3, AFC4, control 10): 2%
- Distribution of slaughtered pigs in meat quality class S (pigs [3]; class S >60.85% lean-meat, Group 2 feed AFC2, Group 3 AFC3, Group 4 AFC4, 375 pigs per group, control 35): 38%
- Distribution of slaughtered pigs in meat quality class U (pigs [3]; class U >55.9% lean-meat, feeds AFC2, AFC3, AFC4, control 15): 20%
- % of all pigs distributed in classes S and E (pigs [3]; fourth experiment, control 70%): 77%
- Distribution of slaughtered pigs in meat quality class E (pigs [4]; class E >58.75% lean-meat, feeds AFC2, AFC3, AFC4, control 33): 38%
- Distribution of slaughtered pigs in meat quality class O (pigs [4]; [11]): 1%
- Distribution of slaughtered pigs in meat quality class P (pigs [4]; [12]): 0%
- Distribution of slaughtered pigs in meat quality class R (pigs [4]; class R >53.9% lean-meat, feeds AFC2, AFC3, AFC4, control 11): 3%
- Distribution of slaughtered pigs in meat quality class S (pigs [4]; class S >60.85% lean-meat, Group 2 feed AFC2, Group 3 AFC3, Group 4 AFC4, 330 pigs per group, control 30): 40%
- Distribution of slaughtered pigs in meat quality class U (pigs [4]; class U >55.9% lean-meat, feeds AFC2, AFC3, AFC4, control 22): 18%
- % of all pigs (carcasses classified as S and E quality) (pigs [4]; sixth experiment, control 63%): 78%
- Distribution of slaughtered pigs in meat quality class E (pigs [5]; class E >58.75% lean-meat, feeds AFC2, AFC3, AFC4, control 30): 35%
- Distribution of slaughtered pigs in meat quality class O (pigs [5]; [11]): 2%
- Distribution of slaughtered pigs in meat quality class P (pigs [5]; [12]): 0%
- Distribution of slaughtered pigs in meat quality class R (pigs [5]; class R >53.9% lean-meat, feeds AFC2, AFC3, AFC4, control 15): 8%
- Distribution of slaughtered pigs in meat quality class S (pigs [5]; class S >60.85% lean-meat, Group 2 feed AFC2, Group 3 AFC3, Group 4 AFC4, 425 pigs per group, control 26): 40%
- Distribution of slaughtered pigs in meat quality class U (pigs [5]; class U >55.9% lean-meat, feeds AFC2, AFC3, AFC4, control 25): 15%
- % of all pigs (carcasses classified as S and E quality) (pigs [5]; fifth experiment, control 56%): 75%
